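Five concentrations, 48 hours, 96-well plates. The concentration for 50% growth inhibition is given as GI50.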 Calls of active or inactive are those of the source. Cut-off read from the data, not from the text of the source: active = GI50 up to about 1.1 µM and inactive = higher.
Legend:
Experiment in all cases: inhibition of tumour cell growth, NCI panel, 48 h
[1] = test system: DLD-1
[2] = test system: DMS-114
[3] = test system: HOP-18
[4] = test system: LXFL 529
[5] = test system: M19-MEL
[6] = test system: SNB-78
[7] = test system: XF498
[8] = test system: KM-20L2
[9] = test system: RXF 631

Measured: GI50

O=C1CCC(c2ccccc2)=NN1c1nc2ccccc2s1
inactive: [1] 34.1 µM | [2] 31 µM | [3] 18.8 µM | [4] 41.8 µM | [5] 28.3 µM | [6] 41.2 µM | [7] 31.9 µM

CCCn1c(SCC)c2ccccc2c1-c1nc(F)nc(F)n1
inactive: [2] > 100 µM | [8] > 100 µM | [4] > 100 µM | [5] > 100 µM | [9] > 100 µM | [6] > 100 µM | [7] > 100 µM

Cc1ccc(-c2cc(-c3ccccc3)c(C#N)c(=O)[nH]2)cc1
inactive: [1] > 100 µM | [2] > 100 µM | [3] > 100 µM | [8] > 100 µM | [4] > 100 µM | [5] > 100 µM | [9] > 100 µM | [6] > 100 µM

CCCCCCCC(=O)O[C@H]1[C@H]2[C@@H](CC1(C)C)C(=O)[C@]13O[C@H]1C(=O)[C@]1(CO1)[C@]23C
inactive: [1] 1.89 µM | [2] 3.41 µM | [3] 5.33 µM | [8] 4.89 µM | [4] 1.58 µM | [5] 3.41 µM | [9] 17.8 µM | [6] 4.94 µM | [7] 3.26 µM

CC(C)c1cccc(=O)c(O)c1
inactive: [1] 1.73 µM | [2] 2.24 µM | [3] 1.4 µM | [8] 2.85 µM | [4] 1.47 µM | [5] 2.15 µM | [9] 1.25 µM | [6] 2.1 µM

Cc1nc2c(C)c3c([nH]c4ccc(Cl)cc43)c(C)c2c(O)c1C
inactive: [1] 14.2 µM | [2] 19.8 µM | [3] 33.8 µM | [5] 6.18 µM | [6] > 100 µM | [7] 43.2 µM

N#CCc1c(-c2ccccc2)n(S(=O)(=O)c2ccccc2)c2ccccc12
inactive: [1] > 100 µM | [2] 64.9 µM | [8] > 100 µM | [4] > 100 µM | [5] > 100 µM | [7] > 100 µM

COc1ccc(C(=O)C(C(=O)CCC(=O)Nc2cccc(Cl)c2)c2ccc(OC)cc2)cc1 (configuration not stated)
inactive: [1] > 100 µM | [3] 53.3 µM | [8] > 100 µM | [4] > 100 µM | [5] > 100 µM | [9] > 100 µM | [7] > 100 µM

Cc1cc2c(cc1C)[n+]([O-])c(C(=O)C/C(=N/OCCCc1ccccc1)C(=O)Nc1cc(Cl)ccc1Cl)c(C)[n+]2[O-]
inactive: [1] > 100 µM | [3] > 100 µM | [8] > 100 µM | [4] > 100 µM | [5] > 100 µM | [9] > 100 µM | [6] > 100 µM | [7] > 100 µM

NNC(=S)N/N=C/C(Cl)=C(\Cl)C(=O)O
inactive: [1] > 100 µM | [2] > 100 µM | [8] > 100 µM | [4] > 100 µM | [5] > 100 µM | [6] > 100 µM | [7] > 100 µM

C/C(CC(=O)Nc1ccc(C)cc1)=N\NC(N)=S
inactive: [1] 97.7 µM | [2] > 100 µM | [8] > 100 µM | [4] 72.3 µM | [5] > 100 µM | [6] > 100 µM | [7] > 100 µM

[N-]=[N+]=NC1(Cc2ccccc2)C(=O)c2cccc3c2N(CCC3)C1=O (configuration not stated)
inactive: [1] > 100 µM | [2] > 100 µM | [3] > 100 µM | [4] > 100 µM | [5] > 100 µM

COC1OC(CBr)C(OC(=O)c2ccccc2)C(OS(=O)(=O)c2ccc(C)cc2)C1Br (configuration not stated)
inactive: [8] > 100 µM | [4] > 100 µM | [5] > 100 µM | [6] > 100 µM

c1ccc(SCCP(CCP(c2ccccc2)c2ccccc2)c2ccccc2)cc1 (configuration not stated)
inactive: [1] 22 µM | [2] 10.2 µM | [3] 2.16 µM | [4] 3.33 µM | [5] 10.7 µM | [6] 2.22 µM | [7] 2.47 µM

CCOC(=O)C1=C(C)N2CCOC2(C)C(C(=O)OC)C1c1cccc(Cl)c1 (configuration not stated)
inactive: [1] > 100 µM | [2] 54 µM | [3] > 100 µM | [8] > 100 µM | [4] > 100 µM | [5] > 100 µM | [6] > 100 µM

COC1(OC)CC2OC1C1N=NN(C(=O)OC(C)(C)C)C21 (configuration not stated)
inactive: [1] 34.8 µM | [2] 67 µM | [3] > 100 µM | [8] > 100 µM | [4] > 100 µM | [5] > 100 µM | [9] > 100 µM | [6] > 100 µM | [7] > 100 µM

CCCCCCC(C)CCCCCCCCCCC(=O)O (configuration not stated)
inactive: [1] > 100 µM | [2] > 100 µM | [3] > 100 µM | [8] > 100 µM | [4] > 100 µM | [5] > 100 µM | [9] > 100 µM | [7] > 100 µM

CCCCC(/C=N/NC(=N)N)CC.Cc1cc(O)c(C(C)C)cc1S(=O)(=O)O
inactive: [1] > 100 µM | [2] 24.5 µM | [8] 45.7 µM | [4] 70.8 µM | [5] 48.3 µM | [6] 84.7 µM

COc1ccc2c(c1OC)C(C=C(c1ccccc1)c1ccccc1)CN(C)C2 (configuration not stated)
inactive: [1] 23.4 µM | [2] 13.9 µM | [3] 17.6 µM | [8] 10.3 µM | [4] 14.4 µM | [5] 30.5 µM | [9] 17.4 µM | [6] 34.6 µM

O=C1CC(c2c(-c3ccccc3)[nH]c3ccccc23)C(=O)N1c1ccccc1 (configuration not stated)
inactive: [1] 70.5 µM | [2] 49.5 µM | [8] 95.1 µM | [4] 57.1 µM | [5] > 100 µM | [9] 56.8 µM | [6] > 100 µM | [7] > 100 µM

CCOC(=O)/C(C#N)=C(O)/C(=C/c1ccccc1Cl)NC(=O)c1ccccc1
inactive: [1] > 100 µM | [2] > 100 µM | [3] > 100 µM | [8] > 100 µM | [4] > 100 µM | [5] > 100 µM | [6] > 100 µM

CCOC(=O)C1=C(C)N(NC(=O)Nc2ccccc2)C2(N)N(NC(=O)Nc3ccccc3)C(C)=C(C(=O)OCC)C12C(=O)OCC (configuration not stated)
inactive: [1] 53.8 µM | [2] 25.5 µM | [3] 26.7 µM | [8] 75.9 µM | [4] 57 µM | [5] 43.3 µM | [9] 51.9 µM | [6] 42.4 µM | [7] 12 µM

CCCCCCCCCCCCCCCCc1c(O)nc(NN)nc1C(=O)OC
inactive: [1] > 50 µM | [2] > 50 µM | [3] > 50 µM | [8] > 50 µM | [4] > 50 µM | [5] > 50 µM | [9] > 50 µM | [6] > 50 µM | [7] > 50 µM

O=C1c2c(c3c4ccccc4n4c3c3c2c2ccccc2n3C/C=C\C4)C(=O)N1Cc1ccccc1
inactive: [1] > 100 µM | [3] > 100 µM | [8] > 100 µM | [4] > 100 µM | [5] > 100 µM | [7] 31.3 µM

Cc1[nH]c2ccccc2c1C1Cc2ccccc2N1C(=O)/C=C\C(=O)O (configuration not stated)
inactive: [1] 64.9 µM | [2] 33.4 µM | [8] 81.1 µM | [4] 21.6 µM | [5] 34 µM | [9] > 100 µM | [6] 61.8 µM | [7] 22.4 µM

Cc1ccc(SSCCCCS(=O)O)cc1
inactive: [1] 25.4 µM | [2] 11.5 µM | [3] 41.9 µM | [8] 20.4 µM | [4] 12.9 µM | [5] 12.2 µM | [9] 11.7 µM | [6] 25.1 µM | [7] 14.8 µM

O=C(O)C[C@H]1CCCCC12CCOC2=O (some centres not stated)
inactive: [1] > 100 µM | [2] > 100 µM | [3] > 100 µM | [8] > 100 µM | [4] > 100 µM | [5] > 100 µM | [9] > 100 µM | [6] > 100 µM | [7] > 100 µM

COc1ccc(S(=O)(=O)Nc2ccccc2C(=O)O)cc1
inactive: [1] > 100 µM | [3] > 100 µM | [8] > 100 µM | [4] > 100 µM | [5] > 100 µM | [9] > 100 µM | [7] > 100 µM

Nc1nc(O)c2nc(N)n(Cc3ccccc3)c2n1
inactive: [1] > 100 µM | [2] > 100 µM | [8] > 100 µM | [4] > 100 µM | [5] > 100 µM | [7] > 100 µM
